Laboratory results from patent publication US10130714B2 (priority 2012, dated 2018).
“Also recorded” adds a separate entry of the source. Like-named read-outs stand apart in the source and are kept apart here.

Assays:
[1] = system: mRNA encoding TNF-α in LPS-activated RAW264.7 cells; format: cell-based
[2] = system: IL-6; parameters: species or system mice; conditions: mouse, in vivo
[3] = system: mRNA encoding IL-6 in LPS-activated RAW264.7 cells; format: cell-based
[4] = system: NIBRG-14 (A/VietNam/1194/2004) H5N1; format: in vivo, BALB/c mice; conditions: for survival of H5N1 infected mice (in words): 12 μmol/kg/day intranasal, 10 LD50 NIBRG-14, FIG. 17A/17B
[5] = system: IFN-γ; parameters: species or system mice; conditions: mouse, in vivo
[6] = system: influenza A/Cal/07/2009 H1N1; parameters: species or system BALB/c mice; conditions: mouse, in vivo
[7] = target: neuraminidase of influenza A/WSN/1933 (H1N1) virus (Influenza A virus, UniProt P03470); experiment: biochemical; format: biochemical
[8] = system: recombinant NIBRG-14 (A/Viet Nam/1194/2004) H5N1 virus; experiment: microbe, parasite or virus in culture; format: cell-based, avian H5N1 influenza virus; conditions: for EC50: Influenza A virus, H5N1, read-out: EC50 against avian H5N1 virus
[9] = system: A/WSN/1933 (H1N1) virus; experiment: Cytopathic prevention assay in MDCK cells, H1N1; format: cell-based, influenza A/WSN/1933 (H1N1); conditions: for anti-influenza activity (in words): H1N1 virus
Method: The cytopathic prevention assays in Madin-Darby canine kidney (MDCK) cells were conducted to evaluate the anti-influenza activity. To our anticipation, the ZA-7-conjugates were potent inhibitors against human H1N1 virus (Table 2). The ZA-1-conjugates 9-12 also resumed anti-influenza activity in the cell-based assays. […] The anti-influenza activity could not be caused by caffeic esters alone. (Salomon, R. et al. Proc. Natl. Acad. Sci. U.S.A. 2007, 104, 12479)
The anti-flu activities of neuraminidase inhibitors were measured by the EC50 values that were the concentrations of NA inhibitor for 50% protection of the H1N1 CPE activities. Fifty μL diluted H1N1 at 100 TCID50 were mixed with equal volumes of NA inhibitors at varied concentrations. The mixtures were used to infect 100 μL of MDCK cells at 1×10^5 cells/mL in 96-wells. After 48 h incubation at 37° C. under 5.0% CO2, the cytopathic effects (CPE) were determined with CellTiter 96® AQueous Non-Radioactive Cell Proliferation Assay reagent as described above. Inhibitor EC50 value were determined by fitting the curve of percent CPE versus the concentrations of NA inhibitor using Graph Pad Prism 4.

[10] = humans; cited from earlier work
[11] = Sprague Dawley, rat
[12] = Influenza A virus, MDCK, A/WSN/1933 (H1N1) virus, table data are ranges or single assay results, read-out: EC50 (nM), anti-influenza activity
[13] = A/WSN/1933 (H1N1) virus, table data are ranges or single assay results, read-out: EC50 (nM), anti-influenza activity

neuraminidase of influenza A/WSN/1933 (H1N1) virus, sequence (P03470 whole entry, looked up): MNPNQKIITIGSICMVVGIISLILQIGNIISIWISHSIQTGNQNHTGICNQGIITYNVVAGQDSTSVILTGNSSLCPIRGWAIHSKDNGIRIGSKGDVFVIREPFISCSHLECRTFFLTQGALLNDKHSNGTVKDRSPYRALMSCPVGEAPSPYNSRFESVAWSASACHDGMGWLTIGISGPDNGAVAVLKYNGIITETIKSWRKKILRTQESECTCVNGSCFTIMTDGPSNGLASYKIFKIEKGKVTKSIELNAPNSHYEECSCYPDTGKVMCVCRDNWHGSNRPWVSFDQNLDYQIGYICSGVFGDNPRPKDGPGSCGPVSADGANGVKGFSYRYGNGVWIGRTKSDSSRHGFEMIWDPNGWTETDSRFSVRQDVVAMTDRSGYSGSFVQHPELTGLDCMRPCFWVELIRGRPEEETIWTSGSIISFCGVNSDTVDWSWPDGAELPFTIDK

CC(=O)NC1C(NC(=N)N)C=C(C(=O)O)OC1C(OC(=O)NCCCOC(=O)c1cc(N)ccc1O)C(O)CO (centres unmarked) [ZA-7-ME (3)]
mRNA encoding TNF-α [1]: dose-dependent decreases | level of IL-6 in serum [2]: lower | mRNA encoding IL-6 [3]: dose-dependent decreases | survival of H5N1 infected mice (in words) [4]: did not provide better protection effect than ZA | level of IFN-γ in serum [5]: lower | protection of H1N1 virus infected mice [6]: greater protection than ZA, CA or ME; also recorded: good activity | IC50 [7]: 8.6 to 56.3 nM | EC50 [8]: 430 nM

O=C(/C=C/c1ccc(O)c(O)c1)O[C@@H]1C[C@](O)(C(=O)O)C[C@@H](O)[C@H]1O [chlorogenic acid, reference compound]
anti-influenza activity (in words) [9]: inactive

CC(=O)NC1C(NC(=N)N)C=C(C(=O)O)OC1C(OC(=O)NCCCOC(=O)c1ccc2ccccc2c1O)C(O)CO (centres unmarked) [ZA-7-HNAP (4)]
IC50 [7]: 0.7 to 3.6 nM | EC50 [9, 12]: 50 to 168 nM

O=C(/C=C/c1ccc(O)c(O)c1)OCCCO [3-hydroxypropyl caffeate, reference compound]
anti-influenza activity (in words) [9]: inactive

CC(=O)NC1C(NC(=N)N)C=C(C(=O)O)OC1C(OC(=O)NCCCOC(=O)C=Cc1ccc2c(c1)OCO2)C(O)CO (centres unmarked) [ZA-7-MCA (2)]
IC50 [7]: 5.4 to 7.9 nM

CC(C)(C)OC(=O)NCCCOC(=O)C=Cc1ccc(O)c(O)c1 [3-(tert-butoxyamido)propyl caffeate, reference compound]
anti-influenza activity (in words) [9]: inactive

O=C(O)c1ccc2ccccc2c1O [HNAP, 1-hydroxy-2-naphthoic acid, reference compound]
EC50 [9, 12]: > 100000 nM

CC(=O)NC1C(NC(=N)N)C=C(C(=O)O)OC1C(OC(=O)NCCCNC(=O)C=Cc1ccc(O)c(O)c1)C(O)CO (centres unmarked) [ZA-7-CA-amide (7)]
survival rate of H5N1 infected mice (in words) ([4]; 1.2 μmol/kg/day intranasal, FIG. 17B): improved survival rate | survival of H5N1 infected mice (in words) [4]: greater potency | survival at day 14 [6]: 50% | survival at day 14 / protection from virus-induced death [6]: 100% | survival rate of H1N1 infected mice (in words) [6]: did not improve the survival rate | IC50 [7]: 41.3 to 60.3 nM | EC50 [9, 13]: 5.9 nM | EC50 [9, 12]: 5.1 nM

CC(=O)NC1C(NC(=N)N)C=C(C(=O)OCCCOC(=O)c2cc(N)ccc2O)OC1C(O)C(O)CO (centres unmarked) [ZA-1-ME (11)]
IC50 [7]: 996 nM | EC50 [9, 12]: 16 nM

CC(=O)NC1C(NC(=N)NC(=O)C(C)c2ccc(CC(C)C)cc2)C=C(C(=O)O)OC1C(O)C(O)CO (centres unmarked) [ZA-G-Ibu (47)]
IC50 [7]: 44 to 81 nM | EC50 [9, 12]: 18 to 20 nM

CC(=O)N[C@H]1[C@H]([C@H](O)[C@H](O)CO)OC(C(=O)O)=C[C@@H]1N=C(N)N [ZA, zanamivir, reference compound]
survival of H5N1 infected mice (in words) [4]: did not improve the survival rate | bioavailability [10]: ~5% | survival at day 14 / protection from virus-induced death [6]: 10% | survival of H1N1 infected mice (in words) [6]: all the mice died at day 12 | EC50 [9, 13]: 3.5 to 20.2 nM | EC50 ([9]; read-out: EC50 (nM), anti-influenza activity, A/WSN/1933 (H1N1) virus, table data are ranges or single assay results): 14 nM | EC50 [8]: 680 nM

CC(=O)NC1C(NC(=N)N)C=C(C(=O)OCCCOC(=O)C=Cc2ccc3c(c2)OCO3)OC1C(O)C(O)CO (centres unmarked) [ZA-1-MCA (10)]
IC50 [7]: 3990 nM | EC50 [9, 12]: 28 nM

3,4-(methylenedioxy)cinnamic acid [MCA, reference compound]
mRNA encoding TNF-α [1]: dose-dependent decreases | mRNA encoding IL-6 [3]: dose-dependent decreases | NA inhibitory activity (in words) [7]: did not exhibit any NA inhibitory activity | IC50 ([7]; read-out: IC50 (nM), influenza neuraminidase inhibition): > 100000 nM | EC50 [9, 13]: > 100000 nM

CC(=O)NC1C(NC(=N)N)C=C(C(=O)O)OC1C(OC(=O)NCCCO)C(O)CO (centres unmarked) [ZA-7-HP (6), 5-Acetylamino-6-[2,3-dihydroxy-1-(3-hydroxypropylcarbamoyloxy)propyl]-4-guanidino-5,6-dihydro-4H-pyran-2-carboxylic acid]
IC50 [7]: 11.7 to 19.8 nM | EC50 [8]: 820 nM

CC(=O)NC1C(NC(=N)N)C=C(C(=O)OCCCOC(=O)C=Cc2ccc(O)c(O)c2)OC1C(O)C(O)CO (centres unmarked) [ZA-1-CA (9)]
IC50 [7]: 2850 nM | EC50 [9, 12]: 25 nM

CC(=O)NC1C(NC(=N)N)C=C(C(=O)O)OC1C(OC(=O)NCCCOC(=O)C=Cc1ccc(O)c(O)c1)C(O)CO (centres unmarked) [ZA-7-CA (1)]
mRNA encoding TNF-α [1]: dose-dependent decreases | level of IL-6 in serum [2]: lower | mRNA encoding IL-6 [3]: dose-dependent decreases | survival of H5N1 infected mice (in words) [4]: all survived | level of IFN-γ in serum [5]: lower | protection of H1N1 virus infected mice [6]: greater protection than ZA, CA or ME | protection of mice from influenza virus infection [6]: did not show significant protection | survival of H1N1 infected mice (in words) [6]: all the mice died at day 12 except for those treated with conjugate 1; also recorded: all survived at day 14 | survival rate at day 14 [6]: 40% | IC50 [7]: 2.9 to 7.4 nM | EC50 [9, 12]: 1.4 to 10.6 nM | stability / enzymatic cleavage in plasma [11]: released a degradation product ZA-7-HP (6) | potency relative to zanamivir against H5N1 [8]: about 13 fold | EC50 [8]: 50 nM

Nc1ccc(O)c(C(=O)O)c1 [ME, mesalazine, reference compound]
mRNA encoding TNF-α [1]: dose-dependent decreases | mRNA encoding IL-6 [3]: dose-dependent decreases | NA inhibitory activity (in words) [7]: did not exhibit any NA inhibitory activity | EC50 [9, 12]: > 100000 nM

CC(=O)NC1C(NC(=N)N)C=C(C(=O)O)OC1C(OC(=O)NCCCNC(=O)c1ccc2ccccc2c1O)C(O)CO (centres unmarked) [ZA-7-HNAP-amide (8)]
IC50 [7]: 3.1 nM | EC50 [9, 12]: 6.6 nM

CC(=O)NC1C(NC(=N)N)C=C(C(=O)O)OC1C(OC(=O)NCCCOC(=O)c1ccc(O)c(O)c1)C(O)CO (centres unmarked) [ZA-7-DHBA (5)]
IC50 [7]: 2.9 nM | EC50 [9, 12]: 53 nM

CC(=O)NC1C(N=C(N)N)C=C(C(=O)OCCCOC(=O)c2ccc3ccccc3c2O)OC1C(O)C(O)CO (centres unmarked) [ZA-1-HNAP (12)]
IC50 [7]: 590 nM | EC50 [9, 12]: 48 nM

O=C(O)/C=C/c1ccc(O)c(O)c1 [CA, caffeic acid, reference compound]
mRNA encoding TNF-α [1]: dose-dependent decreases | mRNA encoding IL-6 [3]: dose-dependent decreases | survival of H1N1 infected mice (in words) [6]: all the mice died at day 12 | NA inhibitory activity (in words) [7]: did not exhibit any NA inhibitory activity | EC50 [9, 12]: > 100000 nM
